Calls of active or inactive are those of the source.
Experiments:
[1] = off-target signal loss in HeLa-CEM21 co-culture – HeLa F-luc CTL cells, cherry-picked, counter-screen for HIV-1 Env fusion inhibitor project, dose response (AID 652040); assay type: functional, cell-based;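 further: potency for signal decrease marking cytotoxic or nonspecific inhibition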
[2] = system: SN12K1; assay: cells; assay type: functional; conditions: Homo sapiens
[3] = system: P388; assay: cells; assay type: functional; conditions: Mus musculus
[4] = system: P388/ADR; assay: cells; assay type: functional; conditions: Mus musculus
[5] = system: H4; assay: Luminescence Cell-Based Dose Response HTS to Identify Activators of 5'UTR Stem-Loop Driven Prion Protein mRNA Translation in H4 Neuroglioblastoma Cells. [Related pubchem assays: 1829 (Project Summary), 1814 (Primary HTS)]; assay type: functional; conditions: Homo sapiens
[6] = reduction of Shn3 3'UTR-driven luciferase in osteoblasts – cell-based, Clone20 osteoblasts, firefly luciferase, cherry-picked, dose response (AID 624132); assay type: functional;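 further: firefly luciferase luminescence from reporter carrying the Shn3 3'UTR in osteoblasts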
[7] = system: BJ; assay: BJ-TERT-LT-ST fibroblast viability loss – cell-based, RAS-independent, luminescence, dose response (AID 1935); assay type: functional; conditions: Homo sapiens;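 further: BJ fibroblasts immortalized with TERT plus LT and ST oncogenes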
[8] = system: BJ; assay: BJ-TERT fibroblast viability loss – cell-based, RAS-independent, luminescence, dose response (AID 1933); assay type: functional; conditions: Homo sapiens
[9] = DRD fibroblast viability loss – cell-based, non-viral oncogenic, luminescence, dose response (AID 1934); assay type: functional; conditions: Homo sapiens
[10] = system: BJ; assay: cells; assay type: functional, cell-based; conditions: Homo sapiens
[11] = alpha-synuclein stem-loop luciferase translation blockers – H4 neuroglioma cells, luminescence, confirmation (AID 1988); assay type: functional, cell-based
[12] = system: BJ; assay: growth inhibition of engineered Ras-driven BJ cells – cell-based, alamar blue fluorescence, cherrypicked samples, dose response (AID 2631); assay type: functional; conditions: Homo sapiens;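 further: confirmatory dose-response assay in RAS-dependent BJ fibroblasts engineered with TERT, LT and ST, with cytotoxicity read by fluorescence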
[13] = luciferase reporter signal suppression in cells – H4 neuroglioma cells, luminescence, dose response (AID 1990); assay type: functional, cell-based
[14] = Luminescence Cell-Based Dose Response HTS to Identify Inhibitors of 5'UTR Stem-Loop Driven Prion Protein mRNA Translation in H4 Neuroglioblastoma Cells. [Related pubchem assays: 1827 (Project Summary), 1813 (Primary HTS)]; assay type: functional
[15] = target: T1, Short transient receptor potential channel 4 (Mus musculus, UniProt Q9QUQ5); assay: calcium entry via TRPC4 opening agents – cell-based, HEK293 TRPC4/mu-opioid, Fluo-4 calcium, dose response (AID 434937); assay type: functional
T1 sequence (Q9QUQ5 whole entry): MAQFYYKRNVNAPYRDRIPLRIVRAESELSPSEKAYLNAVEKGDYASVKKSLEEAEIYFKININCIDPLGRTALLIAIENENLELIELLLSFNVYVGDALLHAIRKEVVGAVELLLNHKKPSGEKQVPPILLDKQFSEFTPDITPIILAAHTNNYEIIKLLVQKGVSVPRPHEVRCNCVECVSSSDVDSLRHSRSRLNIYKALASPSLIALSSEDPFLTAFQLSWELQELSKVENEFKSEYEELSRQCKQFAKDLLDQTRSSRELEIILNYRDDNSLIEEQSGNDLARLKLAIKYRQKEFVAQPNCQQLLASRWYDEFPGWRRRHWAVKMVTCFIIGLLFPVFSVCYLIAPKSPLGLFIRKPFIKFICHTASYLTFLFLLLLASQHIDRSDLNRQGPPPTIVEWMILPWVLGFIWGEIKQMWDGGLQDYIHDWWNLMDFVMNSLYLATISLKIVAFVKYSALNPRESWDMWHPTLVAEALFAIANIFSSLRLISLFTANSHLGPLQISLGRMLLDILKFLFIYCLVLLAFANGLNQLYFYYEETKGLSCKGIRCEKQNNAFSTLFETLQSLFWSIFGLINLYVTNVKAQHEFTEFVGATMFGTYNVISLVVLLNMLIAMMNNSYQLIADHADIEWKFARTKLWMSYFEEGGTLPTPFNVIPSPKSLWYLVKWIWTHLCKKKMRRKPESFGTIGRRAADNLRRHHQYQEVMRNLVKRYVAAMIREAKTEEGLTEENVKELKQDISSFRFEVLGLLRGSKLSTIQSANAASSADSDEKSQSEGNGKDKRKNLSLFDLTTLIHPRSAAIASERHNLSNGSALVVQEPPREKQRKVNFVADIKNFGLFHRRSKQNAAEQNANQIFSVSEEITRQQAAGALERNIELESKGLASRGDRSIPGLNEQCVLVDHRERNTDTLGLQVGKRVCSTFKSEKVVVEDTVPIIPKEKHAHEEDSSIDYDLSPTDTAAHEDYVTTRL

[16] = target: T1, Short transient receptor potential channel 4; assay: block of DAMGO-driven TRPC4 calcium entry – cell-based, HEK293 TRPC4/mu-opioid, Fluo-4 calcium, dose response (AID 434942); assay type: functional;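 further: potency of inhibitors blocking the TRPC4 calcium response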
[17] = target: Peroxisome proliferator-activated receptor gamma/Nuclear receptor coactivator 1 (Homo sapiens, UniProt P37231); assay: (§1) TR-FRET dose response biochemical High Throughput Screening assay for agonists of the steroid receptor coactivator 1 (SRC-1) recruitment by the peroxisome proliferator-activated receptor gamma (PPAR gamma): non-selective agonists. [Related pubchem assays (depositor defined):AID1300, AID1808, AID504735, AID631]; assay type: protein assay
Sequence of Peroxisome proliferator-activated receptor gamma/Nuclear receptor coactivator 1 (P37231 whole entry): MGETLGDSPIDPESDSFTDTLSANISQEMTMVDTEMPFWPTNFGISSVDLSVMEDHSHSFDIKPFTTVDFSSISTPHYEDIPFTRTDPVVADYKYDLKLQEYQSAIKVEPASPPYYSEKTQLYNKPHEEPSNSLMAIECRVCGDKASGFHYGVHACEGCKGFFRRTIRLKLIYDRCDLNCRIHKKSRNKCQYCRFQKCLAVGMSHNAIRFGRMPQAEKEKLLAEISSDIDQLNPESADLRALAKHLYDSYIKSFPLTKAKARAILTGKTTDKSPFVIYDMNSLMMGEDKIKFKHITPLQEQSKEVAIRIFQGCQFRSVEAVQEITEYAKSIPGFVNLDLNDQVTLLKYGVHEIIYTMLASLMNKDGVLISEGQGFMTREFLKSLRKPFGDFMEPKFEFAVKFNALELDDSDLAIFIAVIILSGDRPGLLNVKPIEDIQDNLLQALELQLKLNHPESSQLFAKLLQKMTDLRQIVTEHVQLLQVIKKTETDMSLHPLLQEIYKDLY
Sequence of Peroxisome proliferator-activated receptor gamma/Nuclear receptor coactivator 1 (Q15788 whole entry, further chain): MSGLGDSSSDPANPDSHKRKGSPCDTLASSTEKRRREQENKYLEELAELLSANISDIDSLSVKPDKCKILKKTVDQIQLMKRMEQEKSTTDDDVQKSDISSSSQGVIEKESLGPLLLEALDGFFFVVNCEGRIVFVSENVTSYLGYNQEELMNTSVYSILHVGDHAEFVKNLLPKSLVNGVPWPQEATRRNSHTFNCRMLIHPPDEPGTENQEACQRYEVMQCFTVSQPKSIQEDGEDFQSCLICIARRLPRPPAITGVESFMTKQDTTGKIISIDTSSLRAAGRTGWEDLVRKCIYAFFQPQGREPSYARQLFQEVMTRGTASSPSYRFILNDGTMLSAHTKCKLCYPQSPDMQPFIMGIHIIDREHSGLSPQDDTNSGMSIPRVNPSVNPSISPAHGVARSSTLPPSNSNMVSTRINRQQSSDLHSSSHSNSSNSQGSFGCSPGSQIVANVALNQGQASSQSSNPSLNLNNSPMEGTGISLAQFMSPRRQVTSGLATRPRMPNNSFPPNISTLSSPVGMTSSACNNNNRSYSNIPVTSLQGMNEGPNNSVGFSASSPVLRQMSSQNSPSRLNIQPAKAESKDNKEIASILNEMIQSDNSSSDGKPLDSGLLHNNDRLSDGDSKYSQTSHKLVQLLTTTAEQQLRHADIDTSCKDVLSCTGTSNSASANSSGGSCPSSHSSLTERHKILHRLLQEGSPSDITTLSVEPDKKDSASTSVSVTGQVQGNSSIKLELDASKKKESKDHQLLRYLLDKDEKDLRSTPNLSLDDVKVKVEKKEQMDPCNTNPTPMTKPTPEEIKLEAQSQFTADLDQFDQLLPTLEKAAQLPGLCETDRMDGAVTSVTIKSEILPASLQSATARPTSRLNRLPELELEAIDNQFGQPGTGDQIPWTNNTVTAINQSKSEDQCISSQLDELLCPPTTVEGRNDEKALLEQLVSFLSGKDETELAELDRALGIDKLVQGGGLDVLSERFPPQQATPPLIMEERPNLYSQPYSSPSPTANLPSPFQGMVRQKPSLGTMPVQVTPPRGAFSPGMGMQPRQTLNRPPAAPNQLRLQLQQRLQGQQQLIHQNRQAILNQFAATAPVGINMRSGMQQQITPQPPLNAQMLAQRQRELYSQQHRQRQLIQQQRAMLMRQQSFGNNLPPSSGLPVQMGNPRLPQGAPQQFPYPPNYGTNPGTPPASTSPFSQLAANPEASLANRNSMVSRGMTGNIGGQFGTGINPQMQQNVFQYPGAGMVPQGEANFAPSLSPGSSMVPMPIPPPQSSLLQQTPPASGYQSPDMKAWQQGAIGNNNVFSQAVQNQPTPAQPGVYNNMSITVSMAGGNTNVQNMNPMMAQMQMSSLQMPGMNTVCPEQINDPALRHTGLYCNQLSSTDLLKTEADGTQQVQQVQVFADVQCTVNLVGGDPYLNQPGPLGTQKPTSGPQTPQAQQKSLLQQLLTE

[18] = target: Peroxisome proliferator-activated receptor gamma/Nuclear receptor coactivator 3 (Homo sapiens, UniProt P37231); assay: as §1, with “3 (SRC-3)” for “1 (SRC-1)”, “assays: 1301 (Confirmation screen.), 1048 (Primary screen.)]” for “assays (depositor defined):AID1300, AID1808, AID504735, AID631]”; assay type: functional
Sequence of Peroxisome proliferator-activated receptor gamma/Nuclear receptor coactivator 3 (P37231 whole entry): as the sequence (P37231 whole entry) above
Sequence of Peroxisome proliferator-activated receptor gamma/Nuclear receptor coactivator 3 (Q9Y6Q9 whole entry, further chain): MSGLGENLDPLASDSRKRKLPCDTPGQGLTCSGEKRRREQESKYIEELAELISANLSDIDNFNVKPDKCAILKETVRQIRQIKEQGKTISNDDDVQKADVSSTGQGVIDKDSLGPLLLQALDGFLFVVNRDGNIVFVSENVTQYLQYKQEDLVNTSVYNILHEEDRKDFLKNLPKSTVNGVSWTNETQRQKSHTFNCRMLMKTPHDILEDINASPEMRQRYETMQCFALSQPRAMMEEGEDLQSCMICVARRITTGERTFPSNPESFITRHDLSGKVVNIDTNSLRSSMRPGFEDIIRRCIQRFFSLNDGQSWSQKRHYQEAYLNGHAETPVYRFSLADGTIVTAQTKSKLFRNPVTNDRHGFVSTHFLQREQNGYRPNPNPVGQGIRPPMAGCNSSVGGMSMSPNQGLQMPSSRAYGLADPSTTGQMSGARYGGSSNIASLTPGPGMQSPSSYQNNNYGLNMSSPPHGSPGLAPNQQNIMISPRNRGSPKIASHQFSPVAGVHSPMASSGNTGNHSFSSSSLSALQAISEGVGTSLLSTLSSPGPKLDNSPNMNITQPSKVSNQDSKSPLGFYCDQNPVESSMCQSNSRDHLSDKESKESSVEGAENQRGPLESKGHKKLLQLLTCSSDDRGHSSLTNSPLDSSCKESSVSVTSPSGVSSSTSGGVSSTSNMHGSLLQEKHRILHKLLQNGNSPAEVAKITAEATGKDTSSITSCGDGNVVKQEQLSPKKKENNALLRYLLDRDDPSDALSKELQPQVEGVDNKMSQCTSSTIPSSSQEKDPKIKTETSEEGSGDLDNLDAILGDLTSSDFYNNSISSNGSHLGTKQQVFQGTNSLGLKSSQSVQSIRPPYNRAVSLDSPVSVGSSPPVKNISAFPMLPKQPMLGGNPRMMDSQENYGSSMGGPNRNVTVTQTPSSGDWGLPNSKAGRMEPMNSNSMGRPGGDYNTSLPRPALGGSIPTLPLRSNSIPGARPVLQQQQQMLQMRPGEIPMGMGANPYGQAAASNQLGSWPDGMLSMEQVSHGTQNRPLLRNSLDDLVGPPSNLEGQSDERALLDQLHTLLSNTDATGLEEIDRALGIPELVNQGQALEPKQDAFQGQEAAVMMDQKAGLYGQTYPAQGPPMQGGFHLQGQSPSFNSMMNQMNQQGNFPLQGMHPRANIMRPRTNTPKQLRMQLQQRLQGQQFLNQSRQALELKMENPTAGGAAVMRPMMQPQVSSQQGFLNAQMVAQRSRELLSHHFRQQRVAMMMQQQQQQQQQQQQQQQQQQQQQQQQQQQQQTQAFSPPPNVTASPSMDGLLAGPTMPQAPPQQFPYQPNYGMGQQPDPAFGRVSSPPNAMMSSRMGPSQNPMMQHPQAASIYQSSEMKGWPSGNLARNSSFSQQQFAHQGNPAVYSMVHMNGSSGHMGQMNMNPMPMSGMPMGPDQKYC

[19] = target: Peroxisome proliferator-activated receptor gamma/Nuclear receptor coactivator 2 (Homo sapiens, UniProt P37231); assay: TR-FRET dose response biochemical High Throughput Screening assay for agonists of the steroid receptor coactivator 2 (SRC-2) recruitment by the peroxisome proliferator-activated receptor gamma (PPAR gamma): non-selective agonists. [Related pubchem assays: 1297, 1032 ]; assay type: functional
[20] = target: Heat shock protein HSP 90-alpha (Homo sapiens, UniProt P07900); assay type: functional, organism-based
[21] = system: HEK293; assay: cells; assay type: functional, cell-based; conditions: Homo sapiens
[22] = system: HEK293; assay: cells; assay type: functional, cell-based; conditions: Homo sapiens; remark: listed apart in the source
[23] = system: HEK293; assay: inhibition of NOD1-driven NF-kB reporter – cell-based, luminescence, uHTS, primary screen (AID 1578); assay type: functional; conditions: Homo sapiens
[24] = system: HEK293; assay: NOD2 signaling inhibitors in MDP-stimulated cells, cell-based, uHTS, luminescence (AID 2001); assay type: functional; conditions: Homo sapiens
[25] = target: Paired box protein Pax-8 (Homo sapiens, UniProt Q06710); assay: PAX8 transcriptional activity inhibition in RMG-I – RMG-I cells, luciferase, cherry-pick, dose response (AID 687027); assay type: functional, cell-based;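 further: luciferase reporter driven by Pax8 target thyroperoxidase promoter measured by SteadyGlo luminescence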
Sequence of Paired box protein Pax-8 (Q06710 whole entry): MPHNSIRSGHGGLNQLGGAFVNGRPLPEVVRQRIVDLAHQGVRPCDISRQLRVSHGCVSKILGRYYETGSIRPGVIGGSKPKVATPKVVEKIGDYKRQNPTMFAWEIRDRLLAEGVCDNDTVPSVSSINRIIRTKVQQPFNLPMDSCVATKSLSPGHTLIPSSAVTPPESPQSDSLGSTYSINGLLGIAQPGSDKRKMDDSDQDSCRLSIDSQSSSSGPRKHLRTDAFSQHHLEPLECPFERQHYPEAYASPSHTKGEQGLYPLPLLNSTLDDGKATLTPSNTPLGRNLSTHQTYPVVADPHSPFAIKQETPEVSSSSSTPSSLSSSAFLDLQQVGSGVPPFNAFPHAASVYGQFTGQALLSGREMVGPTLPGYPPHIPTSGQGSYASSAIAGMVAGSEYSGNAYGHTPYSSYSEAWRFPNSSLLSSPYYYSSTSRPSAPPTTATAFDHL

[26] = OVCAR8 cell viability loss – plate reader, dry powder samples, PAX8 project, dose response (AID 743197); assay type: functional, cell-based; conditions: OVCAR-8
[27] = target: Luciferin 4-monooxygenase (Photinus pyralis, UniProt P08659); assay: inhibition of purified Photinus pyralis luciferase – biochemical, luminescence, dose response (AID 1891)
Sequence of Luciferin 4-monooxygenase (P08659 whole entry): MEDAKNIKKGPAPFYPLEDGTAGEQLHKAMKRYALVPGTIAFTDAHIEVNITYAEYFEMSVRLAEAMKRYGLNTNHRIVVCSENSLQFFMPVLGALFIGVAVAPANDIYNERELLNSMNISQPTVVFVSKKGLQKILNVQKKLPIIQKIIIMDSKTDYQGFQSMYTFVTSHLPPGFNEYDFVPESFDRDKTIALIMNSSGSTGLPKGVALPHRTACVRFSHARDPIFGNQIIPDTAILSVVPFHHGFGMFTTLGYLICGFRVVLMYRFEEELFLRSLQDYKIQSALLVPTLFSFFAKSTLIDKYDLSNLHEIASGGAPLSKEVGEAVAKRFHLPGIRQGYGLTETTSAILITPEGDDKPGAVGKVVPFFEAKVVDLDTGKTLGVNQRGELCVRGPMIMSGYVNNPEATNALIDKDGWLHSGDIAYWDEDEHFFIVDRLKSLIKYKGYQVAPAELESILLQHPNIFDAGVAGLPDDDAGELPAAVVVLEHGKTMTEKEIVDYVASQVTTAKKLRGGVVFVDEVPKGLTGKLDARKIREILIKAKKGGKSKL

[28] = Luminescence Cell-Based Dose Confirmation HTS to Identify Inhibitors of Platelet Dense Granule Release. [Related pubchem assays: 1663 (Primary HTS), 1678 (Summary of Project)]; assay type: functional
[29] = microbe, parasite or virus in culture; assay type: functional; conditions: Mycobacterium tuberculosis

For `Nc1ncn([C@H]2C[C@H](O)[C@@H](CO)O2)c(=O)n1` [DECITABINE], the AC50 [1] was > 70 µM (inactive), the GI50 [2] was > 375 µM (inactive) and the GI50 [3] was 0.051 µM (active). The GI50 [4] was 0.0959 µM (active) and the EC50 [5] was 94.9 µM (active).
With `CC1(C)CC(=O)c2c(nc(SCC(=O)Nc3nsc(-c4ccccc4)n3)c(C#N)c2-c2ccccc2)C1` the AC50 [6] was > 70 µM (inactive), the EC50 [7] was > 150 µM (not active) and the EC50 [8] was > 150 µM (not active). The EC50 [9] was 35 µM (active), the EC50 [10] was 7.76 µM (active) and the EC50 [11] was 13.4 µM (active). For the same compound, the EC50 [12] was 0.596 µM (active), the EC50 [13] was > 120 µM (not active) and the EC50 [14] was > 120 µM (not active).
For `O=[N+]([O-])c1cc2c(cc1CNCCc1ccc3c(c1)OCO3)OCO2`, the EC50 [15] was 3.35 µM (active) and the EC50 [16] was 1.06 µM (active).
In the case of `Cc1ccc(C(=O)C2=C(O)C(=O)N(c3ncccn3)C2c2ccc(Cl)cc2)o1` (centres undefined), the EC50 [17] is reported as > 79.4 µM (inactive), the EC50 [18] is reported as > 79.4 µM (not active) and the EC50 [19] is reported as 35.8 µM (not active).
In the case of `N#C/C(=C\c1cccc(Oc2ccccc2)c1)C(=O)N1CCOCC1`, the AC50 [20] is reported as 8.82 µM (active).
In the case of `COc1ccc(NS(=O)(=O)c2ccc3c(c2)Cc2ccccc2-3)cn1`, the IC50 [21] is reported as > 20 µM (inactive), the IC50 [22] is reported as 9.79 µM (active) and the EC50 [23] is reported as 5.22 µM (active). For the same compound, the IC50 [24] was 8.27 µM (active).
For `C[C@@H]1CCCCO[C@@H](CN(C)C(=O)Nc2ccc(C(F)(F)F)cc2)[C@H](C)CN([C@H](C)CO)C(=O)c2cc(NS(=O)(=O)c3ccccc3)ccc2O1`, the AC50 [25] was 6.96 µM (active) and the AC50 [26] was > 70 µM (inactive).
With `COc1ccc2nc(NC(=O)c3ccoc3C)sc2c1` the EC50 [27] was 0.263 µM (active), the EC50 [12] was > 133 µM (inactive) and the EC50 [28] was 0.468 µM (active).
For `CCc1ccc(-c2cc(C)no2)cc1S(=O)(=O)NCCCN1CCN(c2ccccc2)CC1`, the CC50 [29] was 30.9 µM (active), the IC50 [21] was 7.44 µM (active) and the IC50 [22] was 4.42 µM (active). For the same compound, the EC50 [23] was 6.88 µM (active) and the IC50 [24] was 4.26 µM (active).

Reference: ChEMBL document CHEMBL1201862, “PubChem BioAssay data set” (2004)
